Experiment [1] in a line: DPPH radical scavenging assay. As to conditions: 30 min in the dark, 517 nm; mean ± SD of three measurements; read-out: IC50 DPPH Free Radical. The procedure: The DPPH (2,2-diphenyl-1-picrylhydrazyl) radical scavenging activity of the synthesised compounds was determined by a spectrophotometric method based on the reduction of an ethanol solution of DPPH[33]^,[34]. 2, 5, 10, 20 µL of 1 mM stock solution of each compound was completed to 40 µL with the DMSO and mixed with 160 µL of 0.1 mM of DPPH free radical solution. The mixture was led to stand for 30 min in the dark and the absorbance was then measured at 517 nm against a blank. Inhibition of free radical, DPPH, in percent (I %), was calculated according to the formula: I %=(Acontrol−Asample)/Acontrol×100 where Acontrol is the absorbance of the control reaction (containing all reagents except for the tested compounds), and Asample is the absorbance of the test compounds. Tests were carried out in triplicate. BHA and BHT were used as positive control.

A short description of experiment [2]: ABTS cation radical decolorisation assay. Particulars: 6 min at room temperature, 734 nm; mean ± SD of three measurements. The protocol:
The percent inhibition of decolorisation of ABTS [2,2′-azino-bis(3-ethylbenzothiazoline-6-sulfonic acid)] cation radical is obtained as a function of time and concentration and evaluated by comparison with the BHT and BHA compounds used as standard[35]^,[36]. The tested compounds at different concentrations are added to each well and 160 µL of 7 mM ABTS solution is added. After 6 min at room temperature, the absorbances were measured at 734 nm. ABTS cation radical decolorisation activities were determined by using the equation below: %Inhibition = (Acontrol−Asample)/Acontrol × 100 where A is the absorbance. Tests were carried out in triplicate. BHA and BHT were used as positive control.

The next experiment has as its target T1, hCA I (Homo sapiens, UniProt P00915).
T1 construct: made in house
Briefly: biochemical. Particulars: stopped flow CO2 hydrase assay; mean from 3 assays, errors ± 5–10%.

The target of another experiment is T2, hCA II (Homo sapiens, UniProt P00918).
T2 construct: made in house
Briefly: CA inhibition, stopped flow CO2 hydrase assay. Type of experiment: biochemical. As to conditions: mean from 3 assays, errors ± 5–10%. The protocol:
(§1) An SX.18 MV-R Applied Photophysics (Oxford, UK) stopped-flow instrument has been used to assay the inhibition of various CA isozymes. Phenol Red (at a concentration of 0.2 mM) has been used as an indicator, working at the absorbance maximum of 557 nm, with 10 mM Hepes (pH 7.4) as a buffer, 0.1 M Na2SO4 or NaClO4 (for maintaining constant the ionic strength; […]. Stock solutions of inhibitors were prepared at a concentration of 10 mM (in DMSO-water 1:1, v/v) and dilutions up to 0.01 nM done with the assay buffer mentioned above. At least 7 different inhibitor concentrations have been used for measuring the inhibition constant. Inhibitor and enzyme solutions were pre-incubated together for 10 min at room temperature before assay, to allow for the formation of the E-I complex. Triplicate experiments were done for each inhibitor concentration, and the value reported throughout the paper is the mean of such results. The inhibition constants were obtained by nonlinear least-squares methods using the Cheng-Prusoff equation, as reported earlier, and represent the mean from at least three different determinations1[27–32]. All CA isozymes used here were recombinant proteins obtained as reported earlier by our group.

The next experiment concerns the target T3, hCA XII (Homo sapiens, UniProt O43570).
T3 construct: made in house
Briefly: CA inhibition, stopped flow CO2 hydrase assay. Type of experiment: biochemical. As to conditions: mean from 3 assays, errors ± 5–10%. The protocol: as §1

The next experiment addresses T4, hCA IV (Homo sapiens, UniProt P22748).
T4 construct: made in house
The experiment can be described thus: biochemical. As to conditions: stopped flow CO2 hydrase assay; mean from 3 assays, errors ± 5–10%.

Another experiment deals with T5, hCA VII (Homo sapiens, UniProt P43166).
T5 construct: made in house
The experiment can be described thus: biochemical. As to conditions: stopped flow CO2 hydrase assay; mean from 3 assays, errors ± 5–10%.

For another experiment, the target named is T6, hCA IX (Homo sapiens, UniProt Q16790).
T6 construct: made in house
The experiment can be described thus: biochemical. As to conditions: stopped flow CO2 hydrase assay; mean from 3 assays, errors ± 5–10%.

Another experiment in a line: Metal chelating activity. As to conditions: ferrous chloride/ferrozine, 562 nm; mean ± SD of three measurements; read-out: IC50 Metal Chelate. The procedure: The chelating ability of synthesised compounds was examined according to the method of Dinis et al.[37]. The tested compounds at different concentrations were added to each well and 4 µL of 2 mM ferrous (II) chloride was added. Then 8 µL of 5 mM ferrozine was added and the reaction was started. After 10 min at room temperature, the absorbance was measured at 562 nm against a blank. The results were expressed as a percentage of inhibition of the ferrozine-Fe^2+ complex formation. The percentage inhibition of the ferrozine -Fe^2+ complex formation was calculated using the formula given below: Chelating ability (%)=(Acontrol−Asample)/Acontrol×100 where A is the absorbance. Tests were carried out in triplicate. EDTA was used as a positive control.

Another experiment relates to Tyrosinase from mushroom. Briefly: Anti-tyrosinase activity (diphenolase, L-DOPA substrate). Type of experiment: biochemical. As to conditions: at 200 µM. The procedure: Anti-tyrosinase activity of the compounds was performed according to the method designed by Hearing and Jimenez[39]. Firstly, the inhibition of diphenolase function of the compounds was evaluated and L-DOPA was used as substrate. Tyrosinase from mushroom (E.C. 1.14.18.1) (30 U, 28 nM) was dissolved in Na-phosphate buffer (pH = 6.8, […]) and the compounds were added to the solution for pre-incubation at room temperature for ten minutes. After incubation, 0.5 mM L-DOPA was added to the mixture and the change in absorbance was measured at 475 nm at 37 °C. For positive control, kojic acid was used. The following formula was used to calculate the percentage of all enzyme inhibitions: Inhibition (%) = (Acontrol–Asample)/Acontrol × 100

The target of another experiment is BChE (Homo sapiens, UniProt P06276). The experiment can be described thus: Anticholinesterase assay (Ellman), BChE. The format is biochemical. Particulars: read-out: BChE assay % inhibition. The procedure:
The inhibitory effect of novel calix[4]azacrown substituted sulphonamide Schiff bases CX(1–6) on AChE and BChE activities was determined according to the slightly modified spectrophotometric method of Ellman et al.[38]. All compounds were dissolved in DMSO to prepare stock solutions at 4 mM concentration. Aliquots of 150 µL of 100 mM sodium phosphate buffer (pH 8.0), 10 µL of sample solution and 20 µL AChE (or BChE) solution were mixed and incubated for 15 min at 25 °C, and DTNB [5,5′-Dithio-bis(2-nitro-benzoic)acid] (10 µL) is added. The reaction was then initiated by the addition of acetylthiocholine iodide (or butyrylthiocholine iodide) (10 µL). […]. Tests were carried out in triplicate. Galantamine was used as positive control.

Like-named read-outs stand apart in the source and are kept apart here. A value given as a limit tells only on which side of the number the result lay.

T3 sequence (O43570 25-354): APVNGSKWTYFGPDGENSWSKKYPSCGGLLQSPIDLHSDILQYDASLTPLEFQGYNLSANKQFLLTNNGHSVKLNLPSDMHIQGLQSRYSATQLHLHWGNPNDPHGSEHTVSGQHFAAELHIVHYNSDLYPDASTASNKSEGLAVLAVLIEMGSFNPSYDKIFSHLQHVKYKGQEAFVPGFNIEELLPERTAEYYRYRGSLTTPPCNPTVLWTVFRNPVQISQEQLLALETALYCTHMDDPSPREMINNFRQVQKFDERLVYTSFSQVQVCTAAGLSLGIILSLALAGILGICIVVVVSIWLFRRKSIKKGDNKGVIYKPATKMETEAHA
T5 sequence (P43166 whole entry): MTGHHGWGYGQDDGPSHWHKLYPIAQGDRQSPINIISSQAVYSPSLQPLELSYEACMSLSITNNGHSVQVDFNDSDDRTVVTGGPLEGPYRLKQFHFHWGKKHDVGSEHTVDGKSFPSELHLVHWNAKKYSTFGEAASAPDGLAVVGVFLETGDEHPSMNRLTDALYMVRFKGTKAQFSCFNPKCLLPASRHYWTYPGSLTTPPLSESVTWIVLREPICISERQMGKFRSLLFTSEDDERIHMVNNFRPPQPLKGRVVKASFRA
T1 sequence (P00915 whole entry): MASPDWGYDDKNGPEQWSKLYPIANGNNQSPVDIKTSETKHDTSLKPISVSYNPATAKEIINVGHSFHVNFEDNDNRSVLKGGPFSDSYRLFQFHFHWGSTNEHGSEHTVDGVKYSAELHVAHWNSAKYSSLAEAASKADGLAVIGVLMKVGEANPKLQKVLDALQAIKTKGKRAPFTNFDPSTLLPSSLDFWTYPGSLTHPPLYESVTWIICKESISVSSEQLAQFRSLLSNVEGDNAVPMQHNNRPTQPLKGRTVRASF
T4 sequence (P22748 19-312): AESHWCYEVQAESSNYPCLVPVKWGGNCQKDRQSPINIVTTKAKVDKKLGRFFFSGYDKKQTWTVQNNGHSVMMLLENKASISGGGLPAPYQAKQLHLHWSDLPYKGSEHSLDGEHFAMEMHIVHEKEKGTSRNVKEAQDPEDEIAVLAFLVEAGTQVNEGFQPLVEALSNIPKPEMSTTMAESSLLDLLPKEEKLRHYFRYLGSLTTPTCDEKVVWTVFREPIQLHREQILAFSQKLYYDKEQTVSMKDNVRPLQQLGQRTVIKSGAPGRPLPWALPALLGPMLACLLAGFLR
Chain of BChE (P06276 29-602): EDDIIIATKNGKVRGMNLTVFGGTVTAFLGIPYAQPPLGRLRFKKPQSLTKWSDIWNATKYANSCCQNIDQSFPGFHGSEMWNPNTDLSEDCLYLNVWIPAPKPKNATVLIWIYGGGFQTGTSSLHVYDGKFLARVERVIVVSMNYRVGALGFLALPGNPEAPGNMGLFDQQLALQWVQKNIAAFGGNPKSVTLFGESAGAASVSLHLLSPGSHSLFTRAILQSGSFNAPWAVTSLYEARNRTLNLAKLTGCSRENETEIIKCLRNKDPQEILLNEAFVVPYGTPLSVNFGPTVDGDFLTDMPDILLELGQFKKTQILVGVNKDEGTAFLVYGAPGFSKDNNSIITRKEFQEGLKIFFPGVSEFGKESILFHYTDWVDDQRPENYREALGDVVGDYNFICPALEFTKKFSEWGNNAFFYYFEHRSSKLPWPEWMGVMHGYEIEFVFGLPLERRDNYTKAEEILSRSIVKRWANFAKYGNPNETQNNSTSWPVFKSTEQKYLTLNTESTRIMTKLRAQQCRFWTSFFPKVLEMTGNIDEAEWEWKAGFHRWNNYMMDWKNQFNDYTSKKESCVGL
Text for hCA IV: (§2) An SX.18 MV-R Applied Photophysics (Oxford, UK) stopped-flow instrument has been used to assay the inhibition of various CA isozymes[26]. […] The inhibition constants were obtained by nonlinear least-squares methods using the Cheng-Prusoff equation, as reported earlier, and represent the mean from at least three different determinations1[27–32].
Text for hCA IX: as §2
Text for hCA VII: as §2

Take `COc1ccc(O)c(C(C)(C)C)c1` [BHA, reference compound]: the IC50 in [1] turned out to be 7.88 ± 0.2 µM; in experiment [2] it was 17.59 ± 0.1 µM.
For `Cc1cc(C(C)(C)C)c(O)c(C(C)(C)C)c1` [BHT, reference compound], in that order: 58.86 ± 0.5 µM and 13.2 ± 0.27 µM.
For `CC(C)(C)c1cc2c3c(c1)Cc1cc(C=Nc4ccc(S(N)(=O)=O)cc4)cc(c1O)Cc1cc(C(C)(C)C)cc(c1OCC(=O)NCCNC(=O)CO3)Cc1cc(C=Nc3ccc(S(N)(=O)=O)cc3)cc(c1O)C2` [CX-1], the Ki at hCA I came to 5.55 µM; on hCA II, 0.82 µM; at hCA XII it was 0.27 µM; at hCA IV it was 4.36 µM; at hCA VII, 1.21 µM; on hCA IX, 0.15 µM. The IC50 in [1] was over 1000 µM; in experiment [2], 769.97 ± 0.22 µM; in the experiment “Metal chelating activity” it was over 1000 µM. Besides, in the experiment on Tyrosinase from mushroom, the “Tyrosinase activity % inhibition” value turned out to be 24.46 ± 0.53%.
Consider `Cc1cc(NS(=O)(=O)c2ccc(/N=C/c3cc4c(O)c(c3)Cc3cc(C(C)(C)C)cc5c3OCC(=O)NCCNC(=O)COc3c(cc(C(C)(C)C)cc3Cc3cc(/C=N/c6ccc(S(=O)(=O)Nc7cc(C)on7)cc6)cc(c3O)C5)C4)cc2)no1` [CX-2], for which the inhibitory constant (Ki) at hCA I is over 100 µM; on hCA II it was over 100 µM; at hCA XII it was over 100 µM; on hCA IV, over 100 µM; on hCA VII, over 100 µM; on hCA IX it was 67.6 µM. The IC50 (in experiment [1]; in experiment [2]; in “Metal chelating activity”) was over 1000 µM in each case. Besides, in the experiment on Tyrosinase from mushroom, the “Tyrosinase activity % inhibition” value was 19.55 ± 0.43%.
Regarding `CC(C)(C)c1cc2c3c(c1)Cc1cc(C=Nc4ccc(S(=O)(=O)Nc5ncccn5)cc4)cc(c1O)Cc1cc(C(C)(C)C)cc(c1OCC(=O)NCCNC(=O)CO3)Cc1cc(C=Nc3ccc(S(=O)(=O)Nc4ncccn4)cc3)cc(c1O)C2` [CX-3], the inhibition constant Ki at hCA I is over 100 µM; on hCA II, over 100 µM; on hCA XII, 10.2 µM; at hCA IV it was over 100 µM; on hCA VII, over 100 µM; on hCA IX, 46 µM. Further, the IC50 in experiment [1] was over 1000 µM; in [2] it was 121 ± 0.95 µM; in “Metal chelating activity” it was over 1000 µM. Besides, in the experiment on Tyrosinase from mushroom, the “Tyrosinase activity % inhibition” value was determined as 35.52 ± 0.82%.
As to `CC(C)(C)c1cc2c3c(c1)Cc1cc(C=Nc4ccc(S(=O)(=O)Nc5nc6ccccc6s5)cc4)cc(c1O)Cc1cc(C(C)(C)C)cc(c1OCC(=O)NCCNC(=O)CO3)Cc1cc(C=Nc3ccc(S(=O)(=O)Nc4nc5ccccc5s4)cc3)cc(c1O)C2` [CX-4], the Ki on hCA I, at hCA II, on hCA XII, on hCA IV, at hCA VII and at hCA IX was over 100 µM each time. The IC50 was 520.3 ± 0.89 µM in experiment [1], over 1000 µM in [2] and over 1000 µM in “Metal chelating activity”. Also, the “Tyrosinase activity % inhibition” value in the experiment on Tyrosinase from mushroom was 16.48 ± 0.21%.
For `Cc1ccc(S(=O)(=O)NN=Cc2cc3c(O)c(c2)Cc2cc(C(C)(C)C)cc4c2OCC(=O)NCCNC(=O)COc2c(cc(C(C)(C)C)cc2Cc2cc(C=NNS(=O)(=O)c5ccc(C)cc5)cc(c2O)C4)C3)cc1` [CX-5], the Ki at hCA I, at hCA II, on hCA XII, on hCA IV, on hCA VII and at hCA IX was over 100 µM throughout. The IC50 is 16.8 ± 0.85 µM in experiment [1], 9.79 ± 0.09 µM in [2] and over 1000 µM in “Metal chelating activity”. For the same compound, in the experiment on Tyrosinase from mushroom, the “Tyrosinase activity % inhibition” value is reported as “no activity”.
Take `CC(=O)Nc1ccc(S(=O)(=O)NN=Cc2cc3c(O)c(c2)Cc2cc(C(C)(C)C)cc4c2OCC(=O)NCCNC(=O)COc2c(cc(C(C)(C)C)cc2Cc2cc(C=NNS(=O)(=O)c5ccc(NC(C)=O)cc5)cc(c2O)C4)C3)cc1` [CX-6]: the Ki is over 100 µM at hCA I; over 100 µM at hCA II; over 100 µM on hCA XII; over 100 µM on hCA IV; over 100 µM at hCA VII; 64.6 µM at hCA IX. The IC50 in experiment [1] was 9.02 ± 0.05 µM; in [2], 7.74 ± 0.04 µM; in the experiment “Metal chelating activity” it was over 1000 µM. For the same compound, the inhibition at 200 µM at BChE (at 200 µM) stood at 35.4 ± 0.9%. The “Tyrosinase activity % inhibition” value with Tyrosinase from mushroom is 28.15 ± 0.74%.
Take `O=C(O)CN(CCN(CC(=O)O)CC(=O)O)CC(=O)O` [EDTA, reference compound]: the IC50 in the experiment “Metal chelating activity” was found to be 26.82 ± 0.1 µM.
Regarding `COc1ccc2c3c1O[C@H]1C[C@@H](O)C=C[C@@]31CCN(C)C2` [Galantamine, reference compound], the inhibition at 200 µM on BChE was determined as 76.5 ± 1.28%.
`O=c1cc(CO)occ1O` [Kojik acid, kojic acid, reference compound]: the “Tyrosinase activity % inhibition” value with Tyrosinase from mushroom is 95.26 ± 0.23%.

The values above are taken from publication PMC7269057, “Synthesis of calix[4]azacrown substituted sulphonamides with antioxidant, acetylcholinesterase, butyrylcholinesterase, tyrosinase and carbonic anhydrase inhibitory action” (Journal of Enzyme Inhibition and Medicinal Chemistry, 2020).
